Experimental data taken from PMC5662717, “Angiotensin II-derived constrained peptides with antiplasmodial activity and suppressed vasoconstriction” (Scientific Reports, 2017).
Where a SMILES comes first, the peptide text is derived from it. Bridges are numbered along the chain shown (N, C = ends). Where no end group is shown, it is not given here.

Experiments:
[1] = tested on: stomach fundus; parameters: species or system C57BL/6 J mice; settings: pH 7.4
Method: The bioassay experiment was carried out in duplicate and generated equivalent results. Experiments were carried out using C57BL/6 J mice from the Centro de Desenvolvimento de Modelos Experimentais da Universidade Federal de São Paulo (CEDEME-UNIFESP).
Stomach fundus was isolated from each mouse, divided into two strips along the longitudinal muscle, and mounted into 5 mL organ baths containing modified Krebs-Ringer solution [144 mmol L^–1 NaCl, 5 mmol L^–1 KCl, 1.1 mmol L^–1 MgSO4, 25 mmol L^–1 NaHCO3, 1.1 mmol L^–1 NaH2PO4, 1.25 mmol L^–1 CaCl2, and 5.5 mmol L^–1 glucose at 37 °C (pH 7.4)] and were continuously carboxygenated (95% O2/5% CO2)[29]. Contractile responses to the stimulations with Ang II and analogs 1 and 2 (10^–8 mol L^–1) were measured with a TRI201 tension transducer (PanLab) through an amplifier (Powerlab 4/30). Data were collected through Labchart Pro V7 software. The resting tension was maintained at 0.5 g and the tissues were left to equilibrate for 90 min. The bath solution was frequently changed. The maximal effect was obtained by comparing contractile responses induced by carbachol (10^–8 mol L^–1).

[2] = tested on: human red blood cells; format: cell-based; settings: for Hemolysis of red blood cells: red cells of human, 24 h, 1e-8 mol L^−1
Method: Assessing toxicity is a key requirement for translating novel compounds into the clinic. Therefore, we evaluated the hemolytic activity of Ang II peptide derivatives 1 and 2 towards erythrocyte human cells. Erythrocytes were seeded in 96-well plates in the absence (negative control) or presence of 10^−8 mol L^−1 of the analogs, as described in the Methods Section.
Figure 3 Hemolytic assay of human red blood cells. Red blood cells were treated with distilled water which causes lysis of red blood cells; uninfected erythrocytes were kept in the same conditions used in the invasion assay with a control and each peptide tested (10^−8 mol L^−1), at 37 °C for 24 h. After incubation, the supernatant was collected, clarified at 900 g/8 min and the hemoglobin content was detected in a spectrophotometer at […]. **** denotes statistical significance of group compared with distilled water value p < 0.05.
The hemolytic effect of analogs 1 and 2 was determined in uninfected erythrocytes. Cells were maintained in the same culture conditions in the presence of 10^−8 mol L^−1 of peptides for 24 h. Erythrocytes were centrifuged at 900 g for 8 min. The free hemoglobin in the supernatant was monitored by spectrophotometer at 550 nm. Untreated cells were used as negative control to rule out nonspecific hemolysis. The hemolytic activity was expressed as a percentage of the control. This positive control (100% hemolysis) was prepared by treating the erythrocytes with distilled water.

[3] = tested on: Plasmodium gallinaceum sporozoites; assay: Effect of peptides on salivary gland-derived sporozoites (membrane permeability, propidium iodide fluorescence microscopy); format: cell-based; settings: digitonin 40 μmol L–1 in PBS
Method: The effect of the peptides on sporozoites was determined in vitro by fluorescence microscopy. Briefly, the parasites were incubated for one hour in the presence of each peptide and the fluorophore propidium iodide, which stains dead and dying cells. The results are reported as the percent of fluorescent (i.e., inactivated) sporozoites. The analyses were carried out in triplicate, using three different mosquito batches (n = 9).
Aedes aegypti RED strain was used in experiments due to their hypersensitivity to P. gallinaceum parasite. Mosquitoes were reared using standard laboratory procedures. An aliquot of frozen chicken blood infected with the P. gallinaceum strain 8 A was obtained from A Krettli (René Rachou Institute of Research, FIOCRUZ, MG, Brazil). […]
Nine thousand P. gallinaceum mature sporozoites were pulled from the salivary glands of A. aegypti and incubated in 50 μL of PBS solution, with 40 μmol L^–1 digitonin (positive control), 60 μmol L^–1 peptides or negative control (PBS solution), at 37 °C for one hour. Cell membrane integrity was then observed using a Carl Zeiss inverted fluorescence microscope (model Observer Axio Vision A.1) coupled to an image capture Zeiss AxioCam HR digital camera (1,300 × 1,030 pixels resolution and 8-bit quantization) after addition of 1 μL of the propidium iodide aqueous solution (200 μmol L^–1) in 5 μL of total solution volume. […]

[4] = tested on: Plasmodium gallinaceum sporozoites; settings: cited from earlier work; for Antiplasmodial activity against P. gallinaceum sporozoites, linear peptides: ref 12 (Silva et al.)
Description: Silva et al.[12], tested several linear Ang II derivative peptides in vitro using both the P. gallinaceum sporozoite and the P. falciparum blood stage models. Two short peptides presented high antiplasmodial activity: YHPF and VIPF presented 89% and 94% activity against P. gallinaceum, respectively, and ~50% activity against erythrocyte invasion by P. falciparum. […] Analog 4 was designed via the removal of these two residues. Silva et al., studied linear peptides and observed that peptide DRVYHIPF had potent biological activity (94% against P. gallinaceum sporozoites). The sequence of peptide 1 is similar to that of Ang II, whereas peptide 2 presents a sequence that resembles Ang II with modifications in His and Ile residues (DRVYHIPF). Peptide 4, on the other hand, lacks Ile and His amino acid residues within its backbone. […] Peptide sequence CDRVCYIHPF[7] presented 76% (±3) antiplasmodial activity vs sporozoites of P. gallinaceum. Silva et al., studied different linear Ang II derivative peptides[12] and observed that when His and Ile residues are inverted, the antiplasmodial activity increased cf. peptides with the native primary sequence. To verify this observation, here we inverted the position of Ile and His residues in peptide 3. The resulting peptide presented increased antiplasmodial ...

[5] = tested on: Plasmodium falciparum; assay: Erythrocytic invasion assay (new ring formation) and IC50 determination; format: cell-based; settings: 10^−8 mol L^−1 peptide, 24 h, W2 strain, 2–3% parasitemia, 5% hematocrit; reduction versus untreated control, normalized
Method: The effect of peptides in the P. falciparum erythrocytic cycle was assayed in vitro against a synchronized culture in the schizont form of P. falciparum, maintaining 5% hematocrit and 2% parasitemia. Twenty-four hours after treatment, all peptides reduced new ring formation within erythrocytes at 10^−8 mol L^−1, which was described by Saraiva et al. as the ideal concentration for these inhibition assays. The tests were carried out in duplicate and a total of ten experiments were performed (n = 10). Data were normalized due to differences between controls from each assay. It was observed that three analogs reduced the number of rings formed in the blood stage, but only analogs 1 and 2 presented inhibition >40%, when compared to the untreated controls (Fig. 2B).
The erythrocytic cycle of Plasmodium falciparum was maintained in vitro by culturing W2 strains in 1640 medium, supplemented with A-type human blood and serum, as described by Saraiva et al.[15] […]
To synchronize the parasite cultures into the ring stage, we used a sorbitol solution (5%) according to Lambros and Vanderberg[28]. […] Invasion was evaluated by the appearance of new ring forms. The invasion percentage was determined by optical microscopy (1000x magnification), which represents the total number of cells infected by rings in 100 erythrocytes in at least ten random microscopic fields. […]

[6] = tested on: Plasmodium; settings: cited from earlier work; for Biological activity (antiplasmodial): ref 4 (Maciel et al.); for Antiplasmodial activity relative to Ang II (in words): lactam bridge analogs, ref 6 (Torres et al.)
Description: Three of these analogs (i.e., EDRKVYI ...

[7] = tested on: Plasmodium falciparum; settings: ref 12 (Silva et al.); cited from earlier work
Description: Table 1 Design of angiotensin II-derived synthetic peptides. Purity of peptides determined by LC/MS is shown, along with their respective antiplasmodial activity and design rationale. | column: Antiplasmodial activity vs P. falciparum (new ring formation%) || Silva et al.[12], tested several linear Ang II derivative peptides in vitro using both the P. gallinaceum sporozoite and the P. falciparum blood stage models. Two short peptides presented high antiplasmodial activity: YHPF and VIPF presented 89% and 94% activity against P. gallinaceum, respectively, and ~50% activity against erythrocyte invasion by P. falciparum. […] The authors observed that Ang II reduced by 47% reinfection caused by ring forms. Silva and colleagues tested linear Ang II derivatives using the same model and observed that two short peptides were capable of reducing parasite reinfection >50%[12]. In this work, we tested designer peptides using the P. falciparum erythrocytic cycle and observed that two peptides (1 and 2) were able to reduce ... || (+ 1 further places)

With `CC[C@H](C)[C@@H]1NC(=O)[C@H](Cc2ccc(O)cc2)NC(=O)[C@H](C(C)C)NC(=O)[C@H](CCCNC(=N)N)NC(=O)[C@H](CC(=O)O)NC(=O)[C@@H](N)CSSC[C@@H](C(=O)O)NC(=O)[C@H](Cc2ccccc2)NC(=O)[C@@H]2CCCN2C(=O)[C@H](Cc2c[nH]cn2)NC1=O` [Peptide 1] (H-CDRVYIHPFC-OH; disulfide 1-10) the “Contractile response / vasoconstriction (in words)” value [1] was “complete suppression of vasoconstriction”, the “Hemolytic effect (in words)” value [2] was “did not present hemolytic effects” and the “Hemolysis of red blood cells” value [2] was < 6%.
For `CC[C@H](C)[C@@H]1NC(=O)[C@H](Cc2c[nH]cn2)NC(=O)[C@H](Cc2ccc(O)cc2)NC(=O)[C@H](C(C)C)NC(=O)[C@H](CCCNC(=N)N)NC(=O)[C@H](CC(=O)O)NC(=O)[C@@H](N)CSSC[C@@H](C(=O)O)NC(=O)[C@H](Cc2ccccc2)NC(=O)[C@@H]2CCCN2C1=O` [Peptide 2] (H-CDRVYHIPFC-OH; disulfide 1-10), the “Contractile response / vasoconstriction (in words)” value [1] was “complete suppression of vasoconstriction”, the “Hemolytic effect (in words)” value [2] was “did not present hemolytic effects” and the “Hemolysis of red blood cells” value [2] was < 6%.
For `C[C@@H]1CC[C@@]2(OC1)O[C@H]1[C@@H](O)[C@H]3[C@@H]4CC[C@H]5C[C@@H](O[C@@H]6O[C@H](CO)[C@H](O[C@@H]7O[C@H](CO)[C@@H](O)[C@H](O[C@@H]8OC[C@@H](O)[C@H](O)[C@H]8O)[C@H]7O[C@@H]7O[C@H](CO)[C@H](O)[C@H](O[C@@H]8O[C@H](CO)[C@@H](O)[C@H](O)[C@H]8O)[C@H]7O)[C@H](O)[C@H]6O)[C@H](O)C[C@]5(C)[C@H]4CC[C@]3(C)[C@H]1[C@@H]2C` [digitonin], the “Lysis of parasite membranes by the positive control” value [3] was 100%.
For “CDRVCYIHPF (disulfide 1-5 (inferred)) [S-S restricted Ang II analog of Torres et al]”, the “Antiplasmodial activity vs sporozoites of P. gallinaceum, S-S restricted analog” value ([4]; ref 7 (Torres et al.)) is given as 76%.
For “CVIPFC (disulfide 1-6 (inferred)) [Peptide 8]”, the “Antiplasmodial activity vs P. falciparum (new ring formation%)” value [5] was 3.5%.
In the case of “DDRKVYIHPF [VC-4, linear Ang II analog of Maciel et al]”, the “Biological activity (antiplasmodial)” value [6] is listed as 64%.
For “DRDVKYIHPF (also: sidechain bridge or staple (positions not given here)) [VC-5, restricted (lactam bridge) Ang II analog of Maciel et al]”, the “Biological activity (antiplasmodial)” value [6] is given as 78%.
For “DRVYHIPF [linear Ang II derivative of Silva et al., linear counterpart of peptide 2]”, the “Antiplasmodial activity against P. gallinaceum sporozoites, linear peptides” value [4] is listed as 94%.
In the case of “EDRKVYIHPF (also: sidechain bridge or staple (positions not given here)) [lactam bridge Ang II analog of Torres et al]”, the “Antiplasmodial activity relative to Ang II (in words)” value [6] is listed as “maintained the antiplasmodial activity of Ang II”.
In the case of “EDRVOYIHPF (sidechain bridge or staple) [lactam bridge Ang II analog of Torres et al]”, the “Antiplasmodial activity relative to Ang II (in words)” value [6] is listed as “maintained the antiplasmodial activity of Ang II”.
For “VIPF [short linear Ang II derivative of Silva et al]”, the “Antiplasmodial activity against P. gallinaceum sporozoites, linear peptides” value [4] is given as 94% and the “Activity against erythrocyte invasion by P. falciparum, linear peptides” value [7] is given as ~ 50%.
For “YHPF [short linear Ang II derivative of Silva et al]”, the “Antiplasmodial activity against P. gallinaceum sporozoites, linear peptides” value [4] is listed as 89% and the “Activity against erythrocyte invasion by P. falciparum, linear peptides” value [7] is listed as ~ 50%.
